In US9233961B2, “Compounds and compositions for the treatment of parasitic diseases” (Novartis AG, priority 2013, dated 2016) one finds EC50 data, which are given here for 34 molecules.

The test system of assay [1] is Leishmania donovani axenic amastigote parasites. Description: Leishmania donovani axenic amastigote proliferation assay. It counts as cell-based. In outline: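 L. donovani axenic amastigotes (9600/well) in RPMI 1640 with 20% heat-inactivated FBS, folic acid, adenosine, glucose and 25 mM MES, pH 5.5, were incubated with compounds for 2 days at 37 °C, 5% CO2. Viability read by CellTiter-Glo luminescence; EC50 calculated.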

Assay [2] concerns L. donovani HU3 strain in mouse peritoneal macrophages. Description: Assay for proliferation of Leishmania parasites in mouse peritoneal macrophages. It counts as cell-based, Leishmania donovani. To be noted: Leishmania donovani, Peritoneal macrophage. In outline: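 BALB/c peritoneal macrophages infected 24 h with L. donovani HU3 amastigotes taken from spleens of mice infected 9–11 weeks, then treated with compound for 5 days at 37° C, 5% CO2. Parasite nuclei counted by SYBR Green imaging after fixation; EC50 from percentage inhibition.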

The test system of assay [3] is Trypanosoma brucei Lister 427 strain bloodstream form. Description: Assay for proliferation of kinetoplastid parasite Trypanosoma brucei. In kind it is cell-based. To be noted: Lister 427 bloodstream form, 48 hours, read-out: T. brucei EC50. From the text:
Assay for Proliferation of Kinetoplastid Parasite Trypanosoma brucei.
The proliferation is quantified by the addition of Cell Titer Glo (Promega®) a luminescent cell viability assay that measures the number of viable cells in culture based on the quantification of cellular ATP amount, which is an indicator of metabolically active cells.
The following assay illustrates the invention without in any way limiting the scope of the invention. This parasite proliferation assay measures the increase in parasite growth using an assay that measures ATP activity, Cell Titer Glo®.
Trypanosoma brucei Lister 427 strain is grown in HMI-9 Trypanosome media for T. brucei bloodstream form. 30 μl of HMI-9 media is dispensed into 384 well assay plates. 200 nl of compounds of the invention (in DMSO), including anti-trypanosome controls (Pentamidine and suramin), are then transferred into the assay plates, as well as DMSO alone to serve as a negative control for inhibition. Then 25 μl of a suspension of T. brucei culture in HMI-9 media is dispensed into the assay plates. The final concentration of parasites in culture corresponds to 1.7% of 0.5 uM ATP activity with Cell Titer Glo® in HMI-9 media. The plates are placed in a 37° C. incubator for 48 hours in an atmospheric environment containing 5% CO2. 40 μl of Cell Titer Glo® is dispensed into the plates. The plates are then read for luminescence. The percentage inhibition of 50%, EC50, is calculated for each compound.

[4] abbreviates: axenic amastigotes in vitro, read-out: L. donovani amastigotes EC50.
Where [5] appears, read: read-out: L. donavani Macrophage EC50.

Like-named read-outs stand apart in the source and are kept apart here.

For orientation: EC50 means the concentration at which the effect is half-maximal. Regarding `CC(C)N1CCN(c2ccc(-c3cnc4nc(-c5cc(NC(=O)c6ccco6)ccc5Cl)[nH]c4c3)cc2)CC1` [Compound 62], the EC50 in assay [1] (setting [4]) was 19.2 µM; in assay [2] (setting [5]) it was 9.4 µM; in assay [3], 0.52 µM.
On the same counts, the results for `Cc1cnc2nc(-c3cc(NC(=O)Cn4cncn4)ccc3Cl)[nH]c2c1` [Compound 122] are over 25 µM, over 50 µM and over 25 µM.
For `Cc1cnc2nc(-c3cc(NC(=O)CN)ccc3Cl)[nH]c2c1` [Compound 116] the same measures were over 25 µM, over 50 µM and over 25 µM.
For `Cc1cnc2nc(-c3cc(NC(=O)C4CCc5ccccc5O4)ccc3Cl)[nH]c2c1` (centres unmarked) [Compound 198] the same measures were over 25 µM, over 28.7 µM and 8.4 µM.
As for `CN1CCc2cc(-c3cnc4nc(-c5cc(NC(=O)c6ccco6)ccc5Cl)[nH]c4c3)ccc21` [Compound 59], the figures for the EC50 in assay [1] (setting [4]), in assay [2] (setting [5]) and in assay [3] were 1.34 µM, 3.7 µM and 0.143 µM, respectively.
For `Cc1cnc2nc(-c3cc(NC(=O)c4ccc(S(C)(=O)=O)cc4Cl)ccc3Cl)[nH]c2c1` [Compound 110] the same measures were over 25 µM, 23.8 µM and over 13.6 µM.
In the case of `COc1ccnc(C(=O)Nc2ccc(Cl)c(-c3nc4ncc(C)cc4[nH]3)c2)c1` [Compound 173], the 50% effective concentration (EC50) in assay [1] (setting [4]) is over 25 µM; in assay [2] (setting [5]) it was 18.1 µM; in assay [3] it was over 13.8 µM.
Take `Cc1cnc2nc(-c3cc(NC(=O)C4CCCC4)ccc3Cl)[nH]c2c1` [Compound 199]: the concentration giving a half-maximal response (EC50) in assay [1] (setting [4]) stood at 23.7 µM; in assay [2] (setting [5]), 21.5 µM; in assay [3], 4.4 µM.
With `Cc1cnc2nc(-c3cc(NC(=O)C4(C)CN(C(=O)OC(C)(C)C)C4)ccc3Cl)[nH]c2c1` [Compound 133], the EC50 is over 25 µM in assay [1] (setting [4]), over 50 µM in assay [2] (setting [5]) and over 25 µM in assay [3].
`Cc1cnc2nc(-c3cc(NC(=O)c4oc(C)nc4C)ccc3Cl)[nH]c2c1` [Compound 139]: the EC50 was 1.06 µM in assay [1] (setting [4]), 25.8 µM in assay [2] (setting [5]) and 0.33 µM in assay [3].
On the same counts, the results for `Cc1cnc2nc(-c3cc(NC(=O)c4nc(C)n[nH]4)ccc3Cl)[nH]c2c1` [Compound 203] are over 25 µM, over 50 µM and over 25 µM.
On the same counts, the results for `COC(=O)Nc1ccc(Cl)c(-c2nc3ncc(C)cc3[nH]2)c1` [Compound 224] are 18.7 µM, 11.1 µM and 2.61 µM.
With `Cc1ccnc(C(=O)Nc2ccc(Cl)c(-c3nc4ncc(C)cc4[nH]3)c2)c1` [Compound 172], the concentration giving a half-maximal response (EC50) was over 25 µM in assay [1] (setting [4]), 23.7 µM in assay [2] (setting [5]) and over 15.8 µM in assay [3].
For `COc1ccc(C(C)C(=O)Nc2ccc(Cl)c(-c3nc4ncc(C)cc4[nH]3)c2)cc1` (centres unmarked) [Compound 165] the same measures were over 24.5 µM, 23.1 µM and over 11.7 µM.
For `CC(C)OC(=O)Nc1ccc(Cl)c(-c2nc3ncc(-c4ccccc4NC(=O)OC(C)C)cc3[nH]2)c1` [Compound 335], the EC50 was determined as 0.6 µM in assay [1] (setting [4]) and 1.09 µM in assay [2] (setting [5]).
Consider `Cc1cnc2nc(-c3cc(NC(=O)c4ccc(F)o4)ccc3Cl)[nH]c2c1` [Compound 90], for which the EC50 in assay [1] (setting [4]) was determined as 1.88 µM; in assay [2] (setting [5]), 8 µM.
On to `Cc1cnc2nc(-c3cc(NC(=O)[C@H]4C[C@@H](O)CN4)ccc3F)[nH]c2c1` [Compound 271], for which the 50% effective concentration (EC50) was over 25 µM in assay [1] (setting [4]) and over 50 µM in assay [2] (setting [5]).
For `CC(C)OC(=O)Nc1ccccc1-c1cnc2nc(-c3cc(NC(=O)c4ccco4)ccc3Cl)[nH]c2c1` [Compound 37] the same measures were 0.46 µM and 0.55 µM.
Regarding `C[Si](C)(C)CCOCn1cnc(-c2cnc3nc(-c4cc(NC(=O)N5CCCC5)ccc4Cl)[nH]c3c2)c1` [Compound 306], the 50% effective concentration (EC50) came out at 0.207 µM in assay [1] (setting [4]) and 0.181 µM in assay [2] (setting [5]).
Regarding `Cc1cnc2nc(-c3cc(NC(=O)c4ccno4)ccc3F)[nH]c2c1` [Compound 270], the EC50 in assay [1] (setting [4]) is 20 µM; in assay [2] (setting [5]), over 50 µM.
For the molecule `O=C(Nc1ccc(Cl)c(-c2nc3ncc(-c4ccc(CCN5CCOCC5)cc4)cc3[nH]2)c1)c1ccco1` [Example 6, N-[4-chloro-3-(6-{4-[2-(morpholin-4-yl)ethyl]phenyl}-1H-imidazo[4,5-b]pyridin-2-yl)phenyl]furan-2-carboxamide], the concentration for a half-maximal effect (EC50) in assay [1] (setting [4]) was 1.96 µM; in assay [2] (setting [5]), 0.65 µM.
Consider `Cc1cnc2nc(-c3cc(NC(=O)c4ccco4)ccc3Cl)[nH]c2c1` [Example 1, N-(4-chloro-3-{6-methyl-1H-imidazo[4,5-b]pyridin-2-yl}phenyl)furan-2-carboxamide], for which the EC50 in assay [1] (setting [4]) turned out to be 2.2 µM; in assay [2] (setting [5]), 9 µM.
`O=C(Nc1ccc(Cl)c(-c2nc3ncc(Br)cc3n2CCN2CCOCC2)c1)N1CCCC1` [Compound 388]: the half-maximal effective concentration (EC50) in assay [1] (setting [4]) was over 25 µM; in assay [2] (setting [5]) it was over 50 µM.
For `CC(C)OC(=O)Nc1ccc(-c2cnc3nc(-c4cc(NC(=O)c5ccco5)ccc4Cl)[nH]c3c2)cc1` [Compound 31], the EC50 in assay [1] (setting [4]) amounted to 0.177 µM; in assay [2] (setting [5]) it was 0.45 µM.
Regarding `COC(=O)Nc1ccc(-c2cnc3nc(-c4cc(NC(=O)OC(C)C)ccc4Cl)[nH]c3c2)cc1` [Compound 341, methyl N-{4-[2-(2-chloro-5-{[(propan-2-yloxy)carbonyl]amino}phenyl)-1H-imidazo[4,5-b]pyridin-6-yl]phenyl}carbamate], the concentration for a half-maximal effect (EC50) in assay [1] (48 h, L. donovani axenic amastigotes, 2 day incubation, Cell TiterGlo luminescence, read-out: EC50) is about 0.08 µM; in assay [1] (setting [4]), 0.08 µM; in assay [2] (setting [5]), 0.23 µM.
As to `CC(C)(C)C(=O)Nc1ccc(F)c(-c2nc3ncc(Cl)cc3[nH]2)c1` [Compound 358], the 50% effective concentration (EC50) in assay [1] (setting [4]) was over 25 µM; in assay [2] (setting [5]), over 50 µM.
On the same counts, the results for `O=C(Nc1ccc(F)c(-c2nc3ncc(Br)cc3o2)c1)c1cocn1` [Compound 410] are over 25 µM and over 50 µM.
On the same counts, the results for `O=C(Nc1ccc(C(F)(F)F)cc1)Nc1ccc(F)c(-c2nc3ncc(-c4ccc(NCCN5CCOCC5)nc4)cc3o2)c1` [Compound 391] are over 25 µM and over 12.3 µM.
Turning to `CCOC(=O)Nc1ccc(Cl)c(-c2nc3ncc(C#N)cc3[nH]2)c1` [Compound 289], the EC50 worked out at 4.2 µM in assay [1] (setting [4]) and 8.1 µM in assay [2] (setting [5]).
Take `Cc1cnc2nc(-c3cc(NC(=O)CO)ccc3Cl)[nH]c2c1` [Compound 183]: the EC50 in assay [1] (setting [4]) was over 25 µM; in assay [2] (setting [5]), over 50 µM.
Consider `O=C1NC(=O)C(c2ccc(-c3cnc4nc(-c5cc(NC(=O)c6ccco6)ccc5Cl)[nH]c4c3)cc2)N1` (centres unmarked) [Compound 42], for which the results for the EC50 in assay [1] (setting [4]) and in assay [2] (setting [5]) were 1.39 µM and 4 µM, respectively.
Take `CN(C)C(=O)Nc1ccc(F)c(-c2nc3ncc(Cl)cc3[nH]2)c1` [Compound 354]: the EC50 in assay [1] (setting [4]) is over 25 µM; in assay [2] (setting [5]), over 50 µM.
In the case of `O=C(Nc1ccc(Cl)c(-c2nc3ncc(-c4ccccc4)cc3o2)c1)c1ccco1` [Example 416, N-(4-chloro-3-{6-phenyl-[1,3]oxazolo[4,5-b]pyridin-2-yl}phenyl)-furan-2-carboxamide], the figures for the EC50 in assay [1] (setting [4]) and in assay [2] (read-out: L. donavani Macrophage EC50 (μM)) were 1.52 µM and 2.9 µM, respectively.
Consider `CNc1ccc(-c2cnc3nc(-c4cc(NC(=O)Nc5ccc(C(F)(F)F)cc5)ccc4F)oc3c2)cc1` [Compound 393], for which the EC50 in assay [1] (setting [4]) was over 12.5 µM; in assay [2] (setting [5]), over 50 µM.
